Laboratory results from PubChem BioAssay (NCI).
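All cell lines were grown in 96-well plates and treated with compound for 48 hours. GI50 is the concentration that inhibits growth by half. Definition used: TGI = concentration required for complete inhibition of growth.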

What was measured:
Assay in all cases: NCI tumour cell line growth inhibition, 48 h
CAKI-1 renal = test system: CAKI-1 renal
DMS 114 small cell lung = test system: DMS 114 small cell lung
IGROV1 ovarian = test system: IGROV1 ovarian
HOP-92 NSCLC = test system: HOP-92 NSCLC
BT-549 breast = test system: BT-549 breast
HS 578T breast = test system: HS 578T breast
MCF7 breast = test system: MCF7 breast
MDA-MB-231 breast = test system: MDA-MB-231 breast
NCI/ADR-RES ovarian = test system: NCI/ADR-RES ovarian
SR leukemia = test system: SR leukemia

Structure (SMILES)	TGI (CAKI-1 renal) [µM]	TGI (DMS 114 small cell lung) [µM]	TGI (IGROV1 ovarian) [µM]	TGI (HOP-92 NSCLC) [µM]	TGI (BT-549 breast) [µM]	TGI (HS 578T breast) [µM]	TGI (MCF7 breast) [µM]	TGI (MDA-MB-231 breast) [µM]	TGI (NCI/ADR-RES ovarian) [µM]	TGI (SR leukemia) [µM]	GI50 (CAKI-1 renal) [µM]	GI50 (HOP-92 NSCLC) [µM]	GI50 (HS 578T breast) [µM]	GI50 (IGROV1 ovarian) [µM]	GI50 (MCF7 breast) [µM]	GI50 (MDA-MB-231 breast) [µM]	GI50 (NCI/ADR-RES ovarian) [µM]	GI50 (SR leukemia) [µM]	GI50 (BT-549 breast) [µM]	GI50 (DMS 114 small cell lung) [µM]
Cn1ncc2c(=O)[nH]c(-c3ccccc3)nc21	> 100	> 100	> 100																	
CCc1cc(C)cc2[n+]1CC=C2C	> 100			> 100																
N=C(N)SC(c1ccccc1)c1ccccc1	29.4		42.8	22.9	37.2	> 100	30	33.5	47	> 100										
O=C(Nc1ccc(-n2ccc3c(NC(=O)c4ccccc4)ncnc32)cc1)Nc1ccc(Cl)c(C(F)(F)F)c1	3.81		3.91	4		4.61	3.24	3.66	8.55	4.76	1.69	1.41	1.27	1.77	1.64	1.55	2.41	1.74		
O=C1CC(c2ccccc2)NCCCCN2CC(CN1)C(C(O)c1ccccc1)C2=O (stereo not given)	> 100		> 100	> 100	> 100	> 100	> 100	> 100	> 100	> 100										
NS(=O)(=O)c1ccc(C(=O)O)cc1	> 100		> 100	> 100	> 100	> 100	> 100	> 100	> 100											
COc1ccc2c(c1)C(=O)c1c-2n(CCCCl)c(=O)c2cc([N+](=O)[O-])ccc12	0.959		6.57		> 100	> 100		> 46			0.242		> 68.9	0.0585	< 0.01		0.0815	< 0.0125	1.56	
COc1cc2c(cc1OCCCOc1cc3c(cc1OC)C(=O)N1CC(F)(F)C[C@H]1C=N3)N=C[C@@H]1CC(F)(F)CN1C2=O	0.708		2.33	7.73	3.12	15.3	11.4	6.77	> 84	0.508	0.185	0.336	3.13	0.116	0.195	1.31	21.4	< 0.0261	0.727	
Cc1cccc(NC(N)=S)c1		> 100								> 100										
CC(C)(c1ccccc1)c1ccc(Oc2ccc3c(c2)-c2nc-3nc3[nH]c(nc4nc(nc5[nH]c(n2)c2ccc(Oc6ccc(C(C)(C)c7ccccc7)cc6)cc52)-c2cc(Oc5ccc(C(C)(C)c6ccccc6)cc5)ccc2-4)c2ccc(Oc4ccc(C(C)(C)c5ccccc5)cc4)cc32)cc1			> 100	> 100																
Nc1ccc([As](=O)(O)O)cc1	> 100		> 100	> 100	> 100	> 100	> 100	> 100	> 100	> 100										
Cc1cc(N2CCCCC2)nc(NCc2cc(Nc3ccnc4cc(Cl)ccc34)ccc2F)n1	3.32					4.62	1.46	3.5	4.74	4.99	1.74		2.03		0.298	1.81	2	1.94		
Cc1nc2ccccc2c(=O)n1Nc1ccc(C(=O)O)cc1	> 100	> 100	> 100	> 100			> 100		> 100											
CN(C)C=O.CN(C)C=O.CN1C(C(=O)Nc2ccccn2)=C([O-])c2ccccc2S1(=O)=O.CN1C(C(=O)Nc2ccccn2)=C([O-])c2ccccc2S1(=O)=O.[Cu+2]		> 100	> 100	51.1						> 100		22.1		36.3						32.2
